For 16 compounds, EC50, IC50 and AC50 results are on record in ChEMBL document CHEMBL1201862, “PubChem BioAssay data set” (2004).

The nature of test [1]: viability of PTEN-deleted HCT116 cells – cell-based, HCT116 PTEN knockout, dose response (AID 1047).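 Note: HCT116 colon tumor cells with PTEN knocked out; cells exposed to compound for 60 hours before readout; potency for loss of cell viability measured by luminescence.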 In kind it is functional.
A short description of test [2]: viability of HCT116 lacking mutant beta-catenin – cell-based, human colon tumor, dose response (AID 1045).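 Note: HCT116 colon tumor cells with beta catenin knocked out; cells exposed to compound for 60 hours.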 In kind it is functional.
Test [3] has as its target Glucose-6-phosphate 1-dehydrogenase (Homo sapiens, UniProt P11413). Put plainly: inhibition of Homo sapiens G6PD, dose series – biochemical, fluorescence, selectivity assay for P. falciparum G6PD inhibitor project, dose response (AID 504792). In kind it is functional.
The target of test [4] is T1, Short transient receptor potential channel 4 (Mus musculus, UniProt Q9QUQ5).
T1 sequence (Q9QUQ5 whole entry): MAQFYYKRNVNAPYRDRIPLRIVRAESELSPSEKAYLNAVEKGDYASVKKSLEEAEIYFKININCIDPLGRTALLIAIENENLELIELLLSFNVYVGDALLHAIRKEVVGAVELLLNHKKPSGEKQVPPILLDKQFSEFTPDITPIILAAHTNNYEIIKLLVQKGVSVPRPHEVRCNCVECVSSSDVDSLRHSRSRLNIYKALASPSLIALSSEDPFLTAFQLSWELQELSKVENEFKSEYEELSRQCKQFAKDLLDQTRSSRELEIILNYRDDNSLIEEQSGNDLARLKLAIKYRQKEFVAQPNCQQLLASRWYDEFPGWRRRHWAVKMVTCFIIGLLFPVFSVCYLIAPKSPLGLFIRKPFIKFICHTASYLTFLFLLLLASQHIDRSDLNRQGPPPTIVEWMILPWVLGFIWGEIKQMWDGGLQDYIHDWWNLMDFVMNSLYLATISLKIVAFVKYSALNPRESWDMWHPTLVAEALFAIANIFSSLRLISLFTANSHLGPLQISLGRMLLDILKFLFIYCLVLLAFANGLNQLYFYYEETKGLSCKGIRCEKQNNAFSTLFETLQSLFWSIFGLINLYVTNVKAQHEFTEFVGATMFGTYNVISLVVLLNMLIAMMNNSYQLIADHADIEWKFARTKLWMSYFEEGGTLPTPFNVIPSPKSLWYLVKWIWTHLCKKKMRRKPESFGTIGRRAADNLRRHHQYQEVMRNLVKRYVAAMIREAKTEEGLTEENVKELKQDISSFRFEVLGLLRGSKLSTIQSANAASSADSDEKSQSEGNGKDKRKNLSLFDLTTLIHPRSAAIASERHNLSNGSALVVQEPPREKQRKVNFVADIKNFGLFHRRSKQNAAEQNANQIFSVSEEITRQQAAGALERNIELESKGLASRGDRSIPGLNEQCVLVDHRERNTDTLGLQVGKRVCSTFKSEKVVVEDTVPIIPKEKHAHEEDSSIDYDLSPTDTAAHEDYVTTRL
Description: block of DAMGO-driven TRPC4 calcium entry – cell-based, HEK293 TRPC4/mu-opioid, Fluo-4 calcium, dose response (AID 434942).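 Note: potency of inhibitors blocking the TRPC4 calcium response.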 Format: functional.

Test [5] has as its target Peroxisome proliferator-activated receptor gamma/Nuclear receptor coactivator 1 (Homo sapiens, UniProt P37231). Put plainly: TR-FRET dose response biochemical High Throughput Screening assay for agonists of the steroid receptor coactivator 1 (SRC-1) recruitment by the peroxisome proliferator-activated receptor gamma (PPAR gamma): non-selective agonists. [Related pubchem assays (depositor defined):AID1300, AID1808, AID504735, AID631]. In kind it is protein assay.

The target in test [6] is Peroxisome proliferator-activated receptor gamma/Nuclear receptor coactivator 3 (Homo sapiens, UniProt P37231). Put plainly: TR-FRET dose response biochemical High Throughput Screening assay for agonists of the steroid receptor coactivator 3 (SRC-3) recruitment by the peroxisome proliferator-activated receptor gamma (PPAR gamma): non-selective agonists. [Related pubchem assays: 1301 (Confirmation screen.), 1048 (Primary screen.)]. Format: functional.

For test [7], the target named is Peroxisome proliferator-activated receptor gamma/Nuclear receptor coactivator 2 (Homo sapiens, UniProt P37231). Description: TR-FRET dose response biochemical High Throughput Screening assay for agonists of the steroid receptor coactivator 2 (SRC-2) recruitment by the peroxisome proliferator-activated receptor gamma (PPAR gamma): non-selective agonists. [Related pubchem assays: 1297, 1032 ]. In kind it is functional.

A further test deals with Genome polyprotein (dengue virus type 2, UniProt P29990). Put plainly: flavivirus cap methylation enzyme inhibition – biochemical, confirmation dose response, primary screen (AID 588689). Format: functional.
A short description of test [8]: Trypanosoma cruzi growth suppression in host cells – NIH3T3 host cells, beta-gal luminescence, confirmation (AID 2044).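 Note: intracellular parasites grown in NIH/3T3 mouse fibroblasts as host cells; luminescent beta-galactosidase reporter signal from transgenic T. cruzi replicating inside host cells; inhibitors lower the luminescence signal.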 Format: functional, cell-based.
A short description of test [9]: NIH3T3 cell viability loss – ATP luminescence, mouse fibroblasts, counter-screen, dose response (AID 2010).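 Note: cells exposed to compound for about 90 hours before reading.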 In kind it is functional, cell-based. The settings on record: NIH3T3.
The target of test [10] is T2, Mannose-6-phosphate isomerase (Homo sapiens, UniProt P34949).
T2 sequence (P34949 whole entry): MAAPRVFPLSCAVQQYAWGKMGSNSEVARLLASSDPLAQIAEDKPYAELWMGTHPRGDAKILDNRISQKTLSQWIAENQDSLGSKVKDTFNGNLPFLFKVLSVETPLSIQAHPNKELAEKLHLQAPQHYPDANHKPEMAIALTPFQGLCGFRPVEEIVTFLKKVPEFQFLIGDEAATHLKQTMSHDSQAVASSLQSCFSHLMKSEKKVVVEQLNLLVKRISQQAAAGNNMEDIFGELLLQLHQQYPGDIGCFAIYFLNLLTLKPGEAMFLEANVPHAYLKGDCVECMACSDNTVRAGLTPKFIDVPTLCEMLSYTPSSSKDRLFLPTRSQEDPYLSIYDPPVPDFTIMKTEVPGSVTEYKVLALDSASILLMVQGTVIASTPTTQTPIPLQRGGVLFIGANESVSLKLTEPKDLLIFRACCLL
Put plainly: MPI inhibition at elevated mannose 6-phosphate – biochemical, fluorescence intensity, high mannose 6-phosphate, primary screen (AID 1220).

Test [11] has as its target DNA dC->dU-editing enzyme APOBEC-3G (Homo sapiens, UniProt Q9HC16). Description: Dose Response confirmation of small molecule APOBEC3G DNA Deaminase Inhibitors via a fluorescence-based single-stranded DNA deaminase assay. [Related pubchem assays (depositor defined):AID493012, AID493028]. In kind it is functional.
Test [12] addresses T3, Heat shock factor protein 1 (Mus musculus, UniProt P38532).
T3 sequence (P38532 whole entry): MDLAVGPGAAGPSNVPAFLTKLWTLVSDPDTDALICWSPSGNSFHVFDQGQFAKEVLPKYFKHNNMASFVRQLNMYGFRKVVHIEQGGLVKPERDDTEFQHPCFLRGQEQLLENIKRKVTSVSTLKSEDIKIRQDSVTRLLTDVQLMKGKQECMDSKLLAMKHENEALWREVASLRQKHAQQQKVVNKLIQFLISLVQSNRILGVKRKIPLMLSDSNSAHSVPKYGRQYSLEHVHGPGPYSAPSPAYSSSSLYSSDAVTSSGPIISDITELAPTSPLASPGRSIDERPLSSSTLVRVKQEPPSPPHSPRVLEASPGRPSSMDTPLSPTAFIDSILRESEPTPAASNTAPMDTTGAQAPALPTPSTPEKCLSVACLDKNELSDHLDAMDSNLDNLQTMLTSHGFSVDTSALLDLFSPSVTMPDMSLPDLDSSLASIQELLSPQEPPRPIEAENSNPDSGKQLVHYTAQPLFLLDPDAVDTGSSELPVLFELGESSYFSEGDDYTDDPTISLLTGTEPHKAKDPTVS
Put plainly: decrease of HSF1-responsive luciferase luminescence – cell-based, NIH3T3, dose retest, confirmation (AID 2382).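 Note: NIH3T3 fibroblasts with HSF1-driven luciferase reporter stressed by proteasome inhibitor MG132; luminescence from HSF1-driven luciferase expression after 8 hours of MG132 stress.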 In kind it is functional.

For test [13], the target named is T4, DNA repair and recombination protein RAD54-like (Homo sapiens, UniProt Q92698).
T4 sequence (Q92698 whole entry): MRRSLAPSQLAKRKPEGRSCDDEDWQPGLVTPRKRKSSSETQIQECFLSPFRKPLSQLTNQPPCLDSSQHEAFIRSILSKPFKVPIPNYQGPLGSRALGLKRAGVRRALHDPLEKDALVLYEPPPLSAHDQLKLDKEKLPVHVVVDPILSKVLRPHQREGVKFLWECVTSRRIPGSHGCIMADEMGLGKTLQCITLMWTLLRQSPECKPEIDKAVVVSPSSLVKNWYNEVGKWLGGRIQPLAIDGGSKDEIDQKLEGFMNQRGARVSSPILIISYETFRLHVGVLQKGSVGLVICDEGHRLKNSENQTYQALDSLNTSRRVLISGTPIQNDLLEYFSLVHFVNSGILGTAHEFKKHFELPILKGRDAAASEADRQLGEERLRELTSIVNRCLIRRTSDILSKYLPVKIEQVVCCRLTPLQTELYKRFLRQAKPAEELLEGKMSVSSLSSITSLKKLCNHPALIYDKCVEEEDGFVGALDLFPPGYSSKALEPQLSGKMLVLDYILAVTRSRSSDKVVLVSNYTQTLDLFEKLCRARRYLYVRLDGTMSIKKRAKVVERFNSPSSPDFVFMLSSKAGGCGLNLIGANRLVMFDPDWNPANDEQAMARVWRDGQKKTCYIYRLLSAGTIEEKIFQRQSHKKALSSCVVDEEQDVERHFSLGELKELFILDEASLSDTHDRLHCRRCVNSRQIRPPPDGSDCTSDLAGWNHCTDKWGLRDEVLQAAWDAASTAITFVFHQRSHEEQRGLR
Put plainly: RAD54 Holliday junction migration blockers – biochemical, fluorescence, cherry-picked samples, dose series, confirmation (AID 651657). In kind it is functional.

Test [14] has as its target T5, DNA repair protein RAD52 homolog (Homo sapiens, UniProt P43351).
T5 sequence (P43351 whole entry): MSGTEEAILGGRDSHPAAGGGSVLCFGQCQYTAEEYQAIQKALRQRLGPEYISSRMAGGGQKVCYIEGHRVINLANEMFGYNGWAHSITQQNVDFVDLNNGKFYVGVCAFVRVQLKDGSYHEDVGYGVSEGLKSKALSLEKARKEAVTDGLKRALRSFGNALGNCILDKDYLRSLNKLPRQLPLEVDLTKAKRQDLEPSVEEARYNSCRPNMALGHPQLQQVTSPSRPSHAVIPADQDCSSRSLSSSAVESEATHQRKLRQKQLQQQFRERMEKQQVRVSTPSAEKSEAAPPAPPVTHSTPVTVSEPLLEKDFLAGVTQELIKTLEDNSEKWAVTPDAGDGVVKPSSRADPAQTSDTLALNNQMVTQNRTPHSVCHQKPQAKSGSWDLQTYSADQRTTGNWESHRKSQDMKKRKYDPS
Format: functional, biochemical.

The target of test [15] is T1, Short transient receptor potential channel 4. Description: calcium entry via TRPC4 opening agents – cell-based, HEK293 TRPC4/mu-opioid, Fluo-4 calcium, dose response (AID 434937). Format: functional.

Calls of active or inactive are those of the source.

Chain of Peroxisome proliferator-activated receptor gamma/Nuclear receptor coactivator 2 (P37231 whole entry): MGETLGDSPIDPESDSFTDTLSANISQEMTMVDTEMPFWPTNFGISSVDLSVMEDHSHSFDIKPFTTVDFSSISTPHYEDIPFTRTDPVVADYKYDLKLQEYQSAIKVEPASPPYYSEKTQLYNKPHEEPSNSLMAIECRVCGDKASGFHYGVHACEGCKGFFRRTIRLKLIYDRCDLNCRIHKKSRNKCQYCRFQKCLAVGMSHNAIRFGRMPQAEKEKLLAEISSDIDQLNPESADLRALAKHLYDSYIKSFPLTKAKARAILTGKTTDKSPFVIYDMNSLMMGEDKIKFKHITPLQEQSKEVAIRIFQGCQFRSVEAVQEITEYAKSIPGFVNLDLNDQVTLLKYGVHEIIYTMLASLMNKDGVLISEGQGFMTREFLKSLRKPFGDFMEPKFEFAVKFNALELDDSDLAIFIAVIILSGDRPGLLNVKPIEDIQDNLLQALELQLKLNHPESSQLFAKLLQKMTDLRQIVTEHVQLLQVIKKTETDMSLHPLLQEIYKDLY
Chain of Peroxisome proliferator-activated receptor gamma/Nuclear receptor coactivator 2 (Q15596 whole entry, further chain): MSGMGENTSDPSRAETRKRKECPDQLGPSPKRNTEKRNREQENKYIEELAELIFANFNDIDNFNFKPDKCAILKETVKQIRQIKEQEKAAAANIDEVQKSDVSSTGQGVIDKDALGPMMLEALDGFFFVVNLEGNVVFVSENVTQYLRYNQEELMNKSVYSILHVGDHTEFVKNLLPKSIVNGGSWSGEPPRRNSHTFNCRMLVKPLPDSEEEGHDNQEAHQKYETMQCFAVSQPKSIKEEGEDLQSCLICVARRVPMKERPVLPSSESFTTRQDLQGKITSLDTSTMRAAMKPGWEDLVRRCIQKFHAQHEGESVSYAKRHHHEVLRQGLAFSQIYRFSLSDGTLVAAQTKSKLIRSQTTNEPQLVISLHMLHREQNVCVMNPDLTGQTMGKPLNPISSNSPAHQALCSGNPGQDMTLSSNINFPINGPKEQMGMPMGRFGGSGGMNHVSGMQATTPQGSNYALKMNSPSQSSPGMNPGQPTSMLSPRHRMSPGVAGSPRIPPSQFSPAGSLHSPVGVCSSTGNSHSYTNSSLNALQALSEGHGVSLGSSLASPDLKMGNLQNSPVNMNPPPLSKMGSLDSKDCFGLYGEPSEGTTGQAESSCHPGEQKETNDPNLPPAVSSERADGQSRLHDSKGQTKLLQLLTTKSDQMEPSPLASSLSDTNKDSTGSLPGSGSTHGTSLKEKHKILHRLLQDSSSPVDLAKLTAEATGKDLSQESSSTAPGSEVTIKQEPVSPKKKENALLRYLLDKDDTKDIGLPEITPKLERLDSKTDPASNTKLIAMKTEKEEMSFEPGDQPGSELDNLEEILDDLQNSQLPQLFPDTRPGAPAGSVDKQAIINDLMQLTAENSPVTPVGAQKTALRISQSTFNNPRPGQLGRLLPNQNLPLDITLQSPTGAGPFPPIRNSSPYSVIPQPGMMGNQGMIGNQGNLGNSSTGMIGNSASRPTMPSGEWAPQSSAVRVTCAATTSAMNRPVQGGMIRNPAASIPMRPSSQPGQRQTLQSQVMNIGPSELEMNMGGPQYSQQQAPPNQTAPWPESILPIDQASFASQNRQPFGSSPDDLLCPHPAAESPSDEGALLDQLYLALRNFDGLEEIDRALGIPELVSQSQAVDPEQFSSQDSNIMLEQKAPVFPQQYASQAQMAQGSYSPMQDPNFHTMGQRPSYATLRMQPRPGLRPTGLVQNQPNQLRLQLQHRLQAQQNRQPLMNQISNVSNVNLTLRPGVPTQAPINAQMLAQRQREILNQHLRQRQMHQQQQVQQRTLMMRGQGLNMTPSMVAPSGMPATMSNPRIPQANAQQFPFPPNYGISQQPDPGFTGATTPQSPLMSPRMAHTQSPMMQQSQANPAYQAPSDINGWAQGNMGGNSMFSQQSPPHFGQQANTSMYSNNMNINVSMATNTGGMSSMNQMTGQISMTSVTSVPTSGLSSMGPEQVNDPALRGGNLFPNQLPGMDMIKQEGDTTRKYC
Chain of Peroxisome proliferator-activated receptor gamma/Nuclear receptor coactivator 3 (P37231 whole entry): as the sequence (P37231 whole entry) above
Chain of Peroxisome proliferator-activated receptor gamma/Nuclear receptor coactivator 3 (Q9Y6Q9 whole entry, further chain): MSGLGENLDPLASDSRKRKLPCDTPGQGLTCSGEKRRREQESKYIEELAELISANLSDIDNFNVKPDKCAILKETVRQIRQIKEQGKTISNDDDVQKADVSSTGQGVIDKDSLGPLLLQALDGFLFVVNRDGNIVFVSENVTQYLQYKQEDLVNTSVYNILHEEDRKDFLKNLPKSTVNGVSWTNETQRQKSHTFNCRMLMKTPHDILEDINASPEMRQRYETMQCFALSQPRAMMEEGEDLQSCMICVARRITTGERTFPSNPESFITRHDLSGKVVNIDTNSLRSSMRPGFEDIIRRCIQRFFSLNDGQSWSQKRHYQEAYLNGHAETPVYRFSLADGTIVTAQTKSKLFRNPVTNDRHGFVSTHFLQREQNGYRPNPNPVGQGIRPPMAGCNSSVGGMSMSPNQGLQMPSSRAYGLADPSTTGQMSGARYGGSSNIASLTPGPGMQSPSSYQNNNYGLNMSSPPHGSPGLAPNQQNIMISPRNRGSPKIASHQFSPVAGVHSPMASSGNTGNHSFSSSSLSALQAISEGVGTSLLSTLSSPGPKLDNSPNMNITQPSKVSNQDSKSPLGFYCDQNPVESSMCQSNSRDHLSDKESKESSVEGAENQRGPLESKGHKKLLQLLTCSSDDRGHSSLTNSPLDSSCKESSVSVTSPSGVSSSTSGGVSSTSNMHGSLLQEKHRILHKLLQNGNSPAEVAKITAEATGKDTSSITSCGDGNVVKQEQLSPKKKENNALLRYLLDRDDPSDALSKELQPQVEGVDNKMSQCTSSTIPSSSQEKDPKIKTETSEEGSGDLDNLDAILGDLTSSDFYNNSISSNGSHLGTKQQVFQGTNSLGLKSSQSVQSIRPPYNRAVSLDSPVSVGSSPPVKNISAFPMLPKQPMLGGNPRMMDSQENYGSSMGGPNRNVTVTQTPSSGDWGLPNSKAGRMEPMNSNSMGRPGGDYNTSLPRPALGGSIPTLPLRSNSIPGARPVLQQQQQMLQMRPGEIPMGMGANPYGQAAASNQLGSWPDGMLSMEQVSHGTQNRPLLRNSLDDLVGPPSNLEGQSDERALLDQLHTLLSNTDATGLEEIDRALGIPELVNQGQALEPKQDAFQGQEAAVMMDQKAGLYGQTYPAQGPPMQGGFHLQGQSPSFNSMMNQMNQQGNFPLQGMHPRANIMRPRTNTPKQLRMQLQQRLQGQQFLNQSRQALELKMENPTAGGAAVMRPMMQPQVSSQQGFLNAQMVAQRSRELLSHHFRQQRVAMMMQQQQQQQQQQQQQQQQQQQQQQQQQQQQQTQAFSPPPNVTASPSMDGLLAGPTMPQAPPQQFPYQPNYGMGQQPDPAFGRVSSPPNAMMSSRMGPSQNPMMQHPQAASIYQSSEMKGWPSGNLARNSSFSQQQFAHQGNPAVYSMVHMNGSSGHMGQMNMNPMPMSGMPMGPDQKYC
Chain of Genome polyprotein (P29990 2492-3391 limits assumed): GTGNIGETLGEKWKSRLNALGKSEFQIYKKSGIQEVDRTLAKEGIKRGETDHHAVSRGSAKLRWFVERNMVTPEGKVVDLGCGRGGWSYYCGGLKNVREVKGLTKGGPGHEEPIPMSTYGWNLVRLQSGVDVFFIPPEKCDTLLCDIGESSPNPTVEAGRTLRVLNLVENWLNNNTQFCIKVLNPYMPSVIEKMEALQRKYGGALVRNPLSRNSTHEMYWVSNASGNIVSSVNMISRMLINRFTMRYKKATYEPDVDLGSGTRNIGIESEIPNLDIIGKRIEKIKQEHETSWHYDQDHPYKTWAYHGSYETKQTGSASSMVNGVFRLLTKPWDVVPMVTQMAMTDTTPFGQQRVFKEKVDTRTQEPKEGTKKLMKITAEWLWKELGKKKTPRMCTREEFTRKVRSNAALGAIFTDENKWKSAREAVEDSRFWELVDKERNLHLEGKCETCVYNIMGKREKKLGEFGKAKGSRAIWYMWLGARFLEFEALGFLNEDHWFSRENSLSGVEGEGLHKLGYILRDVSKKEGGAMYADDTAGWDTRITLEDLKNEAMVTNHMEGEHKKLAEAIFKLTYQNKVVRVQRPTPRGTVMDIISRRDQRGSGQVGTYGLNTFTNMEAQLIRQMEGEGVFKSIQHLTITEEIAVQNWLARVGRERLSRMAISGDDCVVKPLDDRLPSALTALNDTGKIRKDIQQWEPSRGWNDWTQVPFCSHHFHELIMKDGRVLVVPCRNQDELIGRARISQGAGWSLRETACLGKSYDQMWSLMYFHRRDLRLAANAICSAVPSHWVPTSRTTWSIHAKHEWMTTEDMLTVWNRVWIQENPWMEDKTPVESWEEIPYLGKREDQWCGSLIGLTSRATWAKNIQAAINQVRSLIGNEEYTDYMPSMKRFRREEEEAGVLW

In the case of `CC1=CC(=NOC(=O)/C=C/c2ccccc2)C=C(C)C1=O`, the results for the EC50 in test [1] and in test [2] were 14 µM (active) and 13.6 µM (active), respectively. In addition, the IC50 in test [3] is > 80 µM (inactive).

As for `Cc1ccc(C)c2c(N)c3c(nc12)CCCCC3.O=C(O)c1cncc(Br)c1`, in test [4], the EC50 is 944 nM (active).

For `COc1cc(/C=C(\C#N)C(=O)Nc2ccccc2C(=O)O)cc(Cl)c1OC`, the EC50 was > 79.4 µM (inactive) in [5], 8.27 µM (active) in test [6] and > 79.4 µM (not active) in test [7]. Besides, on Genome polyprotein, the IC50 is 60.6 µM (active).

As to `CC(Nc1ccc(Br)cn1)c1cc(Cl)ccc1O` (stereo not given), the values for the EC50 in test [5], in test [6] and in [7] were 6.3 µM (active), 3.26 µM (active) and 4.73 µM (active), respectively.

With `O=C(Nc1nc2c(s1)COc1ccccc1-2)c1cccs1`, the EC50 in test [5] was 28.5 µM (inactive); in [6] it was > 79.4 µM (not active); in [7], 19.7 µM (not active).

With `Cc1nc([N+](=O)[O-])nn1C12CC3CC(CC(Br)(C3)C1)C2`, the concentration giving a half-maximal response (EC50) is 105 nM (active) in test [8] and > 60 µM (not active) in test [9]. The concentration for half-maximal inhibition (IC50) was 26.3 µM (active) in test [10] and 49.6 µM (active) in test [11].

Turning to `Cc1cccc(N2CCN(Cc3ccoc3)CC2)c1C`, in test [4], the EC50 was 668 nM (active).

As to `Cc1ccc(-c2csc3nc(SCC(=O)Nc4ccc(Cl)c(C(=O)O)c4)nc(O)c23)cc1`, the concentration for half-maximal inhibition (IC50) at Genome polyprotein is 37 µM (active).

In the case of `Cc1ccc(S(=O)(=O)Nc2nc(-c3ccc(F)cc3)cs2)cc1`, at Genome polyprotein, the half-maximal inhibitory concentration (IC50) was 70.6 µM (active).

`CCOc1ccccc1-n1c(SCC(=O)Nc2nccs2)nnc1-c1ccoc1C`: the half-maximal effective concentration (EC50) in test [4] is 1500 nM (active).

`Cc1onc(-c2c(F)cccc2Cl)c1C(=O)Nc1nnc(-c2ccccc2)s1`: the EC50 was 446 µM (inactive) in test [5], > 79.4 µM (not active) in [6] and 29.8 µM (not active) in [7].

Consider `COc1ccccc1Nc1nc(NCCCN(C)C)nc(N)c1[N+](=O)[O-]`, for which the EC50 in test [12] was > 195 µM (not active). For the same compound, the AC50 is 11.1 µM (active) in test [13] and 5.59 µM (active) in test [14].

`CN(C)CCNC(=O)c1c(NC(=O)c2ccccc2)sc2c1CCCC2`: the concentration for a half-maximal effect (EC50) in test [15] is 5.96 µM (active). For the same compound, the AC50 in test [13] is 56.4 µM (active).

For `CCN(CC)Cc1cc(Nc2ccnc3cc(Cl)ccc23)ccc1O`, the AC50 was 10.3 µM (active) in [13] and 10 µM (active) in [14].

In the case of `O=C(CSc1nc(=O)n(CCN2CCOCC2)c2c1CCC2)Nc1ccc(OC(F)(F)F)cc1`, the concentration for a half-maximal effect (EC50) in [4] was 7500 nM (active).

Turning to `Cc1ccc(S(=O)(=O)NCCC(=O)NCC(c2ccco2)N2CCCCC2)cc1C` (stereo not given), the EC50 in [4] is 168 nM (active); in test [15] it was 0.944 µM (active).
